Test results as given in patent US9994587B2, “HIV protease inhibitors” (priority 2014, dated 2018).

Each compound was assayed against T1, wildtype HIV-1 protease (Human immunodeficiency virus type 1 group M subtype B, UniProt P04585) (assay: Assay for inhibition of microbial expressed HIV protease (Pepcleav)). Details: wild type HIV-1 protease 20 pM, peptide substrate 400 micromolar, pH 5.5; mean of at least two independent experiments.
T1 construct: preincubated with the HIV-1 protease (wild type) enzyme in assay buffer; made in house; host or cells: Escherichia coli
Format: biochemical
Method: Assay for Inhibition of Microbial Expressed HIV Protease (“Pepcleav”)
Studies of the inhibition of the wildtype HIV-1 protease (which was expressed in Escherichia coli) were carried out with a peptide substrate [Val-Ser-Gln-Asn-(βnaphtyl)Ala-Pro-Ile-Val (SEQ ID NO 1)]. The inhibitor was first preincubated with the HIV-1 protease (wild type) enzyme in assay buffer (50 mM sodium acetate, pH 5.5, 100 mM NaCl, and 0.1% BSA) for 30 minutes at room temperature. Substrate was added to 400 micromolar in a total volume of 20 microliters containing 20 picomolar HIV-1 protease (final) and the reaction is incubated for 1 hour at 30° C. The reaction was quenched with the addition of formic acid and indinavir to 0.012% and 150 nM final concentrations, respectively. Product formation was determined after separation of product and substrate on a Zorbax Eclipse XDB-C18 column connected to an API 4000 mass spectrometer (Applied Biosystems) with multiple reaction monitoring (transitions were 644.5/428.9 and 615.4/422.2 (M1/M3) for product and indinavir respectively). The extent of inhibition of the reaction was determined from the peak area of the products.

SMILES | IC50 [nM]
COC(=O)N[C@H](C(=O)Nc1c(CC[C@@H]2CNC[C@@H](CSc3ccc(Cl)cc3)O2)cc[nH]c1=O)C(c1ccccc1)c1ccccc1 [Example 87, N-(4-{2-[(2R,6S)-6-{[(4-chlorophenyl)sulfanyl]methyl}morpholin-2-yl]ethyl}-2-oxo-1,2-dihydropyridin-3-yl)-Nα-(methoxycarbonyl)-β-phenyl-L-phenylalaninamide] | 0.05
NC(=O)OC[C@@H]1CNC[C@@H](CCc2c(F)cncc2NC(=O)[C@@H](N)C(c2ccc(F)cc2)c2ccc(F)cc2)O1 [Example 124, N-[4-(2-{(2R,6S)-6-[(carbamoyloxy)methyl]morpholin-2-yl}ethyl)-5-fluoropyridin-3-yl]-4-fluoro-β-(4-fluorophenyl)-L-phenylalaninamide] | 120
COC(=O)N[C@H](C(=O)Nc1cccc(F)c1CC[C@@H]1CNC[C@@H](CSc2ccc(Cl)cc2)O1)C(c1ccccc1)c1ccccc1 [Example 73, N-(2-{2-[(2R,6S)-6-{[(4-chlorophenyl)sulfanyl]methyl}morpholin-2-yl]ethyl}-3-fluorophenyl)-Nα-(methoxycarbonyl)-β-phenyl-L-phenylalaninamide] | 0.89
COC(=O)N[C@H](C(=O)Nc1c(F)cccc1CC[C@@H]1CNC[C@@H](COc2ccc(C#N)cc2)O1)C(c1ccccc1)c1ccccc1 [Example 76, N-[2-(2-{(2R,6S)-6-[(4-cyanophenoxy)methyl]morpholin-2-yl}ethyl)-6-fluorophenyl]-Nα-(methoxycarbonyl)-β-phenyl-L-phenylalaninamide] | 9.1
COC(=O)N[C@H](C(=O)Nc1cncc(F)c1CC[C@@H]1CNC[C@@H](COc2ccc(C#N)cc2)O1)C(c1ccccc1)c1ccccc1 [Example 82, Methyl[(1S)-2-{[4-(2-{(2R,6S)-6-[(4-cyanophenoxy)methyl]morpholin-2-yl}ethyl)-5-fluoropyridin-3-yl]amino}-1-(diphenylmethyl)-2-oxoethyl]carbamate] | 9.8
COC(=O)N[C@H](C(=O)Nc1ccccc1CC[C@@H]1CNC[C@@H](CSc2ccc(S(C)(=O)=O)cc2)O1)C(c1ccccc1)c1ccccc1 [Example 21, methyl N-[(1S)-1-benzhydryl-2-[[2-[2-[(2R,6S)-6-[(4-methylsulfonylphenyl)sulfanyl-methyl]morpholin-2-yl]ethyl]phenyl]amino]-2-oxo-ethyl]carbamate] | 0.86
COC(=O)N[C@H](C(=O)Nc1ccccc1CC[C@@H]1CNC[C@@H](CSc2cccc(C#N)c2)O1)C(c1ccccc1)c1ccccc1 [Example 24, methyl N-[(1S)-1-benzhydryl-2-[[2-[2-[(2R,6S)-6-[(3-cyanophenyl)sulfanylmethyl]morpholin-2-yl]ethyl]phenyl]amino]-2-oxo-ethyl]carbamate] | 2.1
COC(=O)N[C@H](C(=O)Nc1ccccc1CC[C@@H]1CNC[C@@H](CSc2ccc(C#N)cc2)O1)C(c1ccccc1)c1ccccc1 [Example 22, methyl N-[(1S)-1-benzhydryl-2-[[2-[2-[(2R,6S)-6-[(4-cyanophenyl)sulfanylmethyl]morpholin-2-yl]ethyl]phenyl]amino]-2-oxo-ethyl]carbamate] | 1.1
N[C@H](C(=O)Nc1cncc(F)c1CC[C@@H]1CNC[C@@H](COC(=O)NCCc2ccccc2)O1)C(c1ccc(F)cc1)c1ccc(F)cc1 [Example 130, 4-fluoro-β-(4-fluorophenyl)-N-(5-fluoro-4-{2-[(2R,6S)-6-({[(2-phenylethyl)carbamoyl]oxy}methyl)morpholin-2-yl]ethyl}pyridin-3-yl)-L-phenylalaninamide] | 8.8
N#Cc1cccc(SC[C@@H]2CNC[C@@H](CCc3c(F)cncc3NC(=O)[C@@H](N)C(c3ccc(F)cc3)c3ccc(F)cc3)O2)c1 [Example 102, N-(4-{2-[(2R,6S)-6-{[(3-cyanophenyl)sulfanyl]methyl}morpholin-2-yl]ethyl}-5-fluoropyridin-3-yl)-4-fluoro-β-(4-fluorophenyl)-L-phenylalaninamide] | 0.47
COC(=O)N[C@H](C(=O)Nc1ccccc1CC[C@@H]1CNC[C@@H](COc2ccc(-n3ccnc3)cc2)O1)C(c1ccccc1)c1ccccc1 [Example 14, methyl N-[(1S)-1-benzhydryl-2-[[2-[2-[(2R,6S)-6-[(4-imidazol-1-ylphenoxy)methyl]morpholin-2-yl]ethyl]phenyl]amino]-2-oxo-ethyl]carbamate] | 32
COC(=O)N[C@H](C(=O)Nc1ccccc1CC[C@@H]1CNC[C@@H](COc2ccc3cc[nH]c3c2)O1)C(c1ccccc1)c1ccccc1 [Example 39, N-[2-(2-{(2R,6S)-6-[(1H-indol-6-yloxy)methyl]morpholin-2-yl}ethyl)phenyl]-Na-(methoxycarbonyl)-b-phenyl-L-phenylalaninamide] | 100
COC(=O)N[C@H](C(=O)Nc1ccccc1CC[C@@H]1CNC[C@@H](COc2ccc(Br)cc2[N+](=O)[O-])O1)C(c1ccccc1)c1ccccc1 [Example 10, methyl N-[(1S)-1-benzhydryl-2-[[2-[2-[(2R,6S)-6-[(4-bromo-2-nitro-phenoxy)methyl]morpholin-2-yl]ethyl]phenyl]amino]-2-oxo-ethyl]carbamate] | 120
COC(=O)N[C@H](C(=O)Nc1ccccc1CC[C@@H]1CNC[C@@H](CSc2ccc(Br)cc2)O1)C(c1ccccc1)c1ccccc1 [Example 8, methyl N-[(1S)-1-benzhydryl-2-[[2-[2-[(2R,6S)-6-[(4-bromophenyl)sulfanylmethyl]morpholin-2-yl]ethyl]phenyl]amino]-2-oxo-ethyl]carbamate] | 2.1
COC(=O)N[C@H](C(=O)Nc1cnccc1CC[C@@H]1CNC[C@@H](COc2ccc(C#N)cc2)O1)C(c1ccccc1)c1ccccc1 [Example 81, N-[4-(2-{(2R,6S)-6-[(4-cyanophenoxy)methyl]morpholin-2-yl}ethyl)pyridin-3-yl]-Nα-(methoxycarbonyl)-β-phenyl-L-phenylalaninamide] | 53
N[C@H](C(=O)Nc1cncc(F)c1CC[C@@H]1CNC[C@@H](CO)O1)C(c1ccc(F)cc1)c1ccc(F)cc1 [Example 120, 4-fluoro-N-(5-fluoro-4-{2-[(2R,6S)-6-(hydroxymethyl)morpholin-2-yl]ethyl}pyridin-3-yl)-β-(4-fluorophenyl)-L-phenylalaninamide] | 380
COC(=O)N[C@H](C(=O)NCCCCC1CNC[C@@H](CS(=O)(=O)c2ccc(N)cc2)O1)C(c1ccccc1)c1ccccc1 (stereo partly drawn) [Example 1, Methyl N-[(1S)-1-[4-[(6S)-6-[(4-aminophenyl)sulfonylmethyl]morpholin-2-yl]butylcarbamoyl]-2,2-diphenyl-ethyl]carbamate] | 450
COC(=O)N[C@H](C(=O)Nc1ccccc1CC[C@@H]1CNC[C@@H](COc2ccc3ncsc3c2)O1)C(c1ccccc1)c1ccccc1 [Example 48, N-[2-(2-{(2R,6S)-6-[(1,3-benzothiazol-6-yloxy)methyl]morpholin-2-yl}ethyl)phenyl]-Nα-(methoxycarbonyl)-β-phenyl-L-phenylalaninamide] | 5.5
COC(=O)N[C@H](C(=O)NCCCC1CNC[C@@H](CSc2ccc(Cl)cc2C)O1)C(c1ccccc1)c1ccccc1 (stereo partly drawn) [Example 3, methyl N-[(1S)-1-benzhydryl-2-[3-[(6S)-6-[(4-chloro-2-methyl-phenyl)sulfanylmethyl]morpholin-2-yl]propylamino]-2-oxo-ethyl]carbamate] | 420
COC(=O)N[C@H](C(=O)Nc1ccccc1CC[C@@H]1CNC[C@@H](COc2ccc(F)cc2)O1)C(c1ccccc1)c1ccccc1 [Example 46, N-[2-(2-{(2R,6S)-6-[(4-fluorophenoxy)methyl]morpholin-2-yl}ethyl)phenyl]-Nα-(methoxycarbonyl)-β-phenyl-L-phenylalaninamide] | 23
COC(=O)N[C@@H](C(=O)Nc1ccccc1CC[C@@H]1CNC[C@@H](CSc2ccc(Cl)cc2)O1)[C@H](c1ccccc1)c1ccncc1 [Example 70, (βR)-N-(2-{2-[(2R,6S)-6-{[(4-chlorophenyl)sulfanyl]methyl}morpholin-2-yl]ethyl}phenyl)-Nα-(methoxycarbonyl)-β-pyridin-4-yl-D-phenylalaninamide] | 0.74
N[C@H](C(=O)Nc1cncc(F)c1CC[C@@H]1CNCC2(CCCC2)O1)C(c1ccccc1)c1ccccc1 [Example 131, N-(5-fluoro-4-{2-[(7R)-6-oxa-9-azaspiro[4.5]dec-7-yl]ethyl}pyridin-3-yl)-β-phenyl-L-phenylalaninamide] | 300
COC(=O)N[C@H](C(=O)Nc1ccccc1CC[C@@H]1CNC[C@@H](CSc2ncnc3[nH]ncc23)O1)C(c1ccccc1)c1ccccc1 [Example 35, methyl N-[(1S)-1-benzhydryl-2-oxo-2-[[2-[2-[(2R,6S)-6-(1H-pyrazolo[3,4-d]pyrimidin-4-ylsulfanylmethyl)morpholin-2-yl]ethyl]phenyl]amino]ethyl] carbamate] | 2.1
COC(=O)N[C@H](C(=O)Nc1ccccc1CC[C@@H]1CNC[C@@H](COc2cccc3nn[nH]c23)O1)C(c1ccccc1)c1ccccc1 [Example 40, N-[2-(2-{(2R,6S)-6-[(1H-benzotriazol-7-yloxy)methyl]morpholin-2-yl}ethyl)phenyl]-Na-(methoxycarbonyl)-b-phenyl-L-phenylalaninamide] | 68
